Experiments:
Test in all cases: relative viability (nuclei count vs DMSO), 5 days (fraction); higher = more cells survive
HARA = system: HARA
Method in brief: (§1)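 After 5 days of treatment, lung cancer cells in 1536-well plates were fixed and stained in a single step (final 0.05% Triton X-100, 1% formaldehyde, 1 ug/ml Hoechst) and their nuclei counted on 4× images. Treatment had been applied by pin tool the day after seeding as one drug alone or as a fixed anchor-drug dose with five library-drug doses (not always all listed) in √10 steps. Relative viability is the nuclei count of treated wells divided by that of vehicle wells, and values are medians of duplicate plates.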

201T = system: 201T
Method in brief: as §1

LXF-289 = system: LXF-289
Method in brief: as §1

EMC-BAC-2 = system: EMC-BAC-2
Method in brief: as §1

H3255 = system: H3255
Method in brief: as §1

RERF-LC-KJ = system: RERF-LC-KJ
Method in brief: as §1

NCI-H2126 = system: NCI-H2126
Method in brief: as §1

LOU-NH91 = system: LOU-NH91
Method in brief: as §1

LU99A = system: LU99A
Method in brief: as §1

NCI-H2087 = system: NCI-H2087
Method in brief: as §1

NCI-H1563 = system: NCI-H1563
Method in brief: as §1

HOP-62 = system: HOP-62
Method in brief: as §1

NCI-H1993 = system: NCI-H1993
Method in brief: as §1

UMC-11 = system: UMC-11
Method in brief: as §1

BEN = system: BEN
Method in brief: as §1

NCI-H650 = system: NCI-H650
Method in brief: as §1

COR-L 105 = system: COR-L 105
Method in brief: as §1

LC-2-ad = system: LC-2-ad
Method in brief: as §1

HCC-78 = system: HCC-78
Method in brief: as §1

Nc1cccc2c1CN(C1CCC(=O)NC1=O)C2=O (configuration not stated) [Lenalidomide] + CC(C)C[C@H](NC(=O)[C@H](Cc1ccccc1)NC(=O)c1cnccn1)B(O)O [Bortezomib] (partner 0.002 µM)
relative viability (HARA; first compound 0.253 µM): 1.07 | relative viability (HARA; first compound 0.8 µM): 0.657 | relative viability (HARA; first compound 2.53 µM): 1.24 | relative viability (HARA; first compound 8 µM): 1.19 | relative viability (201T; first compound 0.253 µM): 1.07 | relative viability (201T; first compound 0.8 µM): 0.553 | relative viability (201T; first compound 2.53 µM): 1.09 | relative viability (201T; first compound 8 µM): 1.11 | relative viability (LXF-289; first compound 0.253 µM): 0.958 | relative viability (LXF-289; first compound 0.8 µM): 0.98 | relative viability (LXF-289; first compound 2.53 µM): 1.07 | relative viability (LXF-289; first compound 8 µM): 1.08 | relative viability (EMC-BAC-2; first compound 0.253 µM): 1.04 | relative viability (EMC-BAC-2; first compound 0.8 µM): 0.857 | relative viability (EMC-BAC-2; first compound 2.53 µM): 1.15 | relative viability (EMC-BAC-2; first compound 8 µM): 0.913 | relative viability (H3255; first compound 0.253 µM): 0.886 | relative viability (H3255; first compound 0.8 µM): 0.612 | relative viability (H3255; first compound 2.53 µM): 0.874 | relative viability (H3255; first compound 8 µM): 0.828 | relative viability (RERF-LC-KJ; first compound 0.253 µM): 1.13 | relative viability (RERF-LC-KJ; first compound 0.8 µM): 0.934 | relative viability (RERF-LC-KJ; first compound 2.53 µM): 1.09 | relative viability (RERF-LC-KJ; first compound 8 µM): 0.974 | relative viability (NCI-H2126; first compound 0.253 µM): 1.17 | relative viability (NCI-H2126; first compound 0.8 µM): 0.971 | relative viability (NCI-H2126; first compound 2.53 µM): 1.12 | relative viability (NCI-H2126; first compound 8 µM): 1.1 | relative viability (LOU-NH91; first compound 0.253 µM): 0.478 | relative viability (LOU-NH91; first compound 0.8 µM): 0.433 | relative viability (LOU-NH91; first compound 2.53 µM): 0.501 | relative viability (LOU-NH91; first compound 8 µM): 0.522 | relative viability (LU99A; first compound 0.253 µM): 1.06 | relative viability (LU99A; first compound 0.8 µM): 1.11 | relative viability (LU99A; first compound 2.53 µM): 1.05 | relative viability (LU99A; first compound 8 µM): 0.73 | relative viability (NCI-H2087; first compound 0.253 µM): 0.772 | relative viability (NCI-H2087; first compound 0.8 µM): 0.656 | relative viability (NCI-H2087; first compound 2.53 µM): 0.922 | relative viability (NCI-H2087; first compound 8 µM): 0.835 | relative viability (NCI-H1563; first compound 0.253 µM): 0.807 | relative viability (NCI-H1563; first compound 0.8 µM): 0.846 | relative viability (NCI-H1563; first compound 2.53 µM): 0.887 | relative viability (NCI-H1563; first compound 8 µM): 0.748 | relative viability (HOP-62; first compound 0.253 µM): 0.701 | relative viability (HOP-62; first compound 0.8 µM): 0.417 | relative viability (HOP-62; first compound 2.53 µM): 1.06 | relative viability (HOP-62; first compound 8 µM): 0.722 | relative viability (NCI-H1993; first compound 0.253 µM): 1.07 | relative viability (NCI-H1993; first compound 0.8 µM): 0.951 | relative viability (NCI-H1993; first compound 2.53 µM): 1.12 | relative viability (NCI-H1993; first compound 8 µM): 0.675 | relative viability (UMC-11; first compound 0.253 µM): 0.526 | relative viability (UMC-11; first compound 0.8 µM): 0.332 | relative viability (UMC-11; first compound 2.53 µM): 0.856 | relative viability (UMC-11; first compound 8 µM): 0.635 | relative viability (BEN; first compound 0.253 µM): 1.04 | relative viability (BEN; first compound 0.8 µM): 0.505 | relative viability (BEN; first compound 2.53 µM): 1.02 | relative viability (BEN; first compound 8 µM): 0.524 | relative viability (NCI-H650; first compound 0.253 µM): 0.854 | relative viability (NCI-H650; first compound 2.53 µM): 0.893 | relative viability (NCI-H650; first compound 8 µM): 0.577 | relative viability (COR-L 105; first compound 0.253 µM): 0.792 | relative viability (COR-L 105; first compound 0.8 µM): 0.824 | relative viability (COR-L 105; first compound 2.53 µM): 0.863 | relative viability (COR-L 105; first compound 8 µM): 0.797 | relative viability (LC-2-ad; first compound 0.253 µM): 0.979 | relative viability (LC-2-ad; first compound 0.8 µM): 1.04 | relative viability (LC-2-ad; first compound 2.53 µM): 1.03 | relative viability (LC-2-ad; first compound 8 µM): 1.21 | relative viability (HCC-78; first compound 0.253 µM): 0.469 | relative viability (HCC-78; first compound 0.8 µM): 0.368 | relative viability (HCC-78; first compound 2.53 µM): 0.461 | relative viability (HCC-78; first compound 8 µM): 0.392

CN1CCN(CCOc2cc(OC3CCOCC3)c3c(Nc4c(Cl)ccc5c4OCO5)ncnc3c2)CC1 [Saracatinib] + CC(C)C[C@H](NC(=O)[C@H](Cc1ccccc1)NC(=O)c1cnccn1)B(O)O [Bortezomib] (partner 0.002 µM)
relative viability (HARA; first compound 0.02 µM): 1.12 | relative viability (HARA; first compound 0.6325 µM): 1.08 | relative viability (HARA; first compound 2 µM): 0.602 | relative viability (201T; first compound 0.02 µM): 1.07 | relative viability (201T; first compound 0.2 µM): 1 | relative viability (201T; first compound 0.6325 µM): 1.04 | relative viability (201T; first compound 2 µM): 0.848 | relative viability (LXF-289; first compound 0.02 µM): 0.937 | relative viability (LXF-289; first compound 0.2 µM): 0.959 | relative viability (LXF-289; first compound 0.6325 µM): 0.966 | relative viability (LXF-289; first compound 2 µM): 0.987 | relative viability (EMC-BAC-2; first compound 0.02 µM): 1.02 | relative viability (EMC-BAC-2; first compound 0.2 µM): 1 | relative viability (EMC-BAC-2; first compound 0.6325 µM): 1.19 | relative viability (EMC-BAC-2; first compound 2 µM): 1.03 | relative viability (H3255; first compound 0.02 µM): 0.864 | relative viability (H3255; first compound 0.2 µM): 0.892 | relative viability (H3255; first compound 0.6325 µM): 0.812 | relative viability (H3255; first compound 2 µM): 0.272 | relative viability (RERF-LC-KJ; first compound 0.02 µM): 1.09 | relative viability (RERF-LC-KJ; first compound 0.2 µM): 1.23 | relative viability (RERF-LC-KJ; first compound 0.6325 µM): 0.993 | relative viability (RERF-LC-KJ; first compound 2 µM): 0.942 | relative viability (NCI-H2126; first compound 0.02 µM): 1.09 | relative viability (NCI-H2126; first compound 0.2 µM): 1.02 | relative viability (NCI-H2126; first compound 0.6325 µM): 1.11 | relative viability (NCI-H2126; first compound 2 µM): 0.996 | relative viability (LOU-NH91; first compound 0.02 µM): 0.538 | relative viability (LOU-NH91; first compound 0.2 µM): 0.457 | relative viability (LOU-NH91; first compound 0.6325 µM): 0.521 | relative viability (LOU-NH91; first compound 2 µM): 0.533 | relative viability (LU99A; first compound 0.02 µM): 1.1 | relative viability (LU99A; first compound 0.2 µM): 1 | relative viability (LU99A; first compound 0.6325 µM): 1.13 | relative viability (LU99A; first compound 2 µM): 0.942 | relative viability (NCI-H2087; first compound 0.02 µM): 0.87 | relative viability (NCI-H2087; first compound 0.2 µM): 0.608 | relative viability (NCI-H2087; first compound 0.6325 µM): 0.856 | relative viability (NCI-H2087; first compound 2 µM): 0.711 | relative viability (NCI-H1563; first compound 0.02 µM): 0.857 | relative viability (NCI-H1563; first compound 0.2 µM): 0.713 | relative viability (NCI-H1563; first compound 0.6325 µM): 0.707 | relative viability (NCI-H1563; first compound 2 µM): 0.712 | relative viability (HOP-62; first compound 0.02 µM): 0.715 | relative viability (HOP-62; first compound 0.2 µM): 0.718 | relative viability (HOP-62; first compound 0.6325 µM): 0.692 | relative viability (HOP-62; first compound 2 µM): 1.06 | relative viability (NCI-H1993; first compound 0.02 µM): 1.18 | relative viability (NCI-H1993; first compound 0.2 µM): 0.559 | relative viability (NCI-H1993; first compound 2 µM): 0.67 | relative viability (UMC-11; first compound 0.02 µM): 0.667 | relative viability (UMC-11; first compound 0.6325 µM): 0.64 | relative viability (UMC-11; first compound 2 µM): 0.494 | relative viability (BEN; first compound 0.02 µM): 0.928 | relative viability (BEN; first compound 0.2 µM): 0.695 | relative viability (BEN; first compound 0.6325 µM): 0.889 | relative viability (BEN; first compound 2 µM): 0.573 | relative viability (NCI-H650; first compound 0.02 µM): 0.925 | relative viability (NCI-H650; first compound 0.2 µM): 0.751 | relative viability (NCI-H650; first compound 0.6325 µM): 0.947 | relative viability (NCI-H650; first compound 2 µM): 0.799 | relative viability (COR-L 105; first compound 0.02 µM): 1.11 | relative viability (COR-L 105; first compound 0.2 µM): 0.699 | relative viability (COR-L 105; first compound 0.6325 µM): 0.707 | relative viability (COR-L 105; first compound 2 µM): 0.432 | relative viability (LC-2-ad; first compound 0.02 µM): 1.15 | relative viability (LC-2-ad; first compound 0.6325 µM): 1.12 | relative viability (LC-2-ad; first compound 2 µM): 0.843 | relative viability (HCC-78; first compound 0.02 µM): 0.505 | relative viability (HCC-78; first compound 0.2 µM): 0.513 | relative viability (HCC-78; first compound 0.6325 µM): 0.583 | relative viability (HCC-78; first compound 2 µM): 0.357

— the supplement of paper PMC10307832
